# Reference: paper PMC9607599, “Dual Targeting Ligands—Histamine H3 Receptor Ligands with Monoamine Oxidase B Inhibitory Activity—In Vitro and In Vivo Evaluation” (Pharmaceutics, 2022)
# “And” between values parts separate entries of the source, which are not always exact repeats. Equal values may be shown once. Where a name gives a salt, the structure may show the parent alone. Read-outs that look alike come from different tables or passages of the source.
# Tests used:
# hH3R = conditions: cited from earlier work
# hMAO B = conditions: cited from earlier work
# [1] = biological target: T1, human histamine H3 receptor (hH3R) (Homo sapiens, UniProt Q9Y5N1); test: [3H]Nα-methylhistamine radioligand binding assay in CHO-K1 cells stably expressing hH3R; set-up: expressed in transfected cells; host or cells: CHO-K1; conditions: CHO-K1 cells; [3H]Nα-methylhistamine; mean ± SEM of three independent experiments; read-out: hH3R Ki [nM] ± SEM
# T1 sequence (Q9Y5N1 whole entry): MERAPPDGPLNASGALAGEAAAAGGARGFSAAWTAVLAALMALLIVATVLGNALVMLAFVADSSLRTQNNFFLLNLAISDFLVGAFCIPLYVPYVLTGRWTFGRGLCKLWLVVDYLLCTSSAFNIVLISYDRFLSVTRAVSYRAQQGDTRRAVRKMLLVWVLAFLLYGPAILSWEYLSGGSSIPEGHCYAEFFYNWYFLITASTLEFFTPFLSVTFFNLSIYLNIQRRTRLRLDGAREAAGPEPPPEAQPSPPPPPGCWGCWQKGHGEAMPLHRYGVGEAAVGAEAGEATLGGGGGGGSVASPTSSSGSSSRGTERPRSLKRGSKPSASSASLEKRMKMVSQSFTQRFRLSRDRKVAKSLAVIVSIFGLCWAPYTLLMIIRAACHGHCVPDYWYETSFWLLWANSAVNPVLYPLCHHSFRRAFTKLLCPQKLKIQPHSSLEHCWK
# Method: (§1) Affinity to hH3R stably expressed in CHO-K1 [6] or HEK293 [11] cells was evaluated in a radioligand binding assay as described previously. Briefly, 10 mM stock solutions of the test compounds in DMSO were prepared. Each compound was tested at eight concentrations ranging from 10^−5 to 10^−12 M (final concentration). All assays were carried out in duplicate. […] The radioactivity was counted in MicroBeta 2 [6] or MicroBeta Trilux counter (PerkinElmer). Data were fitted to a one-site curve-fitting equation with Prism 6 (GraphPad Software, San Diego, CA, USA) and Ki values were calculated from IC50 values (from at least three experiments performed in duplicates) according to the Cheng−Prusoff equation [12].
# (§2) Affinity for hH3R was evaluated in a radioligand binding assay using [^3H]N^α-methylhistamine as radioligand in CHO K1 or HEK293 cells stably expressing hH3R as described previously. […] Then, those with at least 50% inhibition for hH3R were selected for further testing (Ki evaluation). […] Compounds were tested in the binding assay in HEK293 cells.
# human MAO B (hMAO B) [2] = biological target: T2, human MAO B (hMAO B) (Homo sapiens, UniProt P27338); test: modality of hMAO B inhibition (Michaelis-Menten / Lineweaver-Burk); type: biochemical
# T2 sequence (P27338 1-520): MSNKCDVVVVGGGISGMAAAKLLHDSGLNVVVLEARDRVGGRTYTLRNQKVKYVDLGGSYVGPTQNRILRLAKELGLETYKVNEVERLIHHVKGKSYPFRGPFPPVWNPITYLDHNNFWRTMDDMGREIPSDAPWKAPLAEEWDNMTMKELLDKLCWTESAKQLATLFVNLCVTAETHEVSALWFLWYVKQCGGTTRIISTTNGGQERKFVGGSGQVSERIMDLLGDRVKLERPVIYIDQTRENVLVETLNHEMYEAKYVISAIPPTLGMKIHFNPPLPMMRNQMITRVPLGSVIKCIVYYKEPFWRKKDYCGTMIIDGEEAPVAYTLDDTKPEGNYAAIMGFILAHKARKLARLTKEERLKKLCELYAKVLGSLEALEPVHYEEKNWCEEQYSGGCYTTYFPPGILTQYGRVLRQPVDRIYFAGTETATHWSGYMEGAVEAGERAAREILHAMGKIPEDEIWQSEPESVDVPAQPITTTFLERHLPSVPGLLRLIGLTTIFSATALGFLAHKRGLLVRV
# Method: Modality of hMAO B inhibition was evaluated for compounds 9 and 13 and the reference safinamide according to the method described previously. Three concentrations of inhibitors, corresponding to their IC20, IC50 and IC80 values, were used. Each experiment was performed in triplicate. KM and Vmax values were calculated from Michaelis–Menten curves by nonlinear regression from the substrate. Lineweaver–Burk plots were calculated using linear regression in GraphPad Prism 6.07 (GraphPad Software, San Diego, CA, USA).
# For testing modality of enzyme inhibition, we used three concentrations of inhibitors that corresponded to their IC20, IC50 and IC80 values. Substrate (p-tyramine) was used at concentrations: 0.05, 0.1, 0.5, 1.0, 1.5 and 2.0 mM.
# human MAO B (hMAO B) [3] = biological target: T2, human MAO B (hMAO B); test: fluorometric MAO assay (p-tyramine substrate); type: biochemical; conditions: for IC50: fluorometric MAO assay, mean ± SEM of 2–4 independent experiments; for inhibition at 1 µM: mean of two independent experiments, read-out: hMAO B % of Inh.
# Method: The precise method was described in [6]. First, compounds 4–32 were screened for hMAO B inhibitory activity at 1 μM concentration by the fluorometric method. Para-tyramine (200 μM) was used as a substrate for the enzyme and safinamide (1 μM) was used as a reference compound. […] Each experiment was performed in duplicate.
# All compounds were first screened for hMAO B inhibitory activity at the concentration of 1 μM. […] Based on the results, we selected compounds 9 and 13 for further analysis.
# [4] = MTT cell viability test on human astrocytes; type: cell-based; conditions: human; 24 h; at 0.15 and 0.25 mg/mL; read-out: decline in cell viability in comparison to the control level
# Method: (§3) The studies were performed on a commercially-available astrocyte cell line isolated from human cerebral cortex (ScienCell Research Laboratories, San Diego, CA, USA; Cat no. 1800). The cells (passage 7–8) were seeded into a 96-well plate at an amount of 10,000 cells/well and kept in accordance with the ScienCell Research Laboratories’ protocol, i.e., in astrocyte medium supplemented with 2% fetal bovine serum, 10% astrocyte growth supplement and 1% penicillin/streptomycin solution, in an atmosphere with 5% CO2 at 37 °C. The cells were allowed to grow for 24 h and then treated with increasing concentrations of test compounds (0.01–0.25 mg/mL) for 24 and 72 h. Astrocytes in the medium on each plate (regardless of the factors tested) were used as a positive control.
# (§4) The viability of the astrocyte cell line was determined calorimetrically using 3-(4,5-dimethylthazol-2-yl)-2,5-diphenyltetrazolium bromide (MTT; Sigma-Aldrich Chemical Co. Ltd., Saint Louis, MO, USA) as described earlier. […] After the incubation time (24 or 72 h) with examined drugs, 50 μL MTT solution (1 mg/mL) was added to each well of the plate for another 4 h. The method is based on the reduction of a yellow tetrazolium salt (MTT) into purple formazan crystals by mitochondrial succinate-tetrazolium reductase system which is metabolically active in viable cells. At the end of the experiment, the cells were treated with 100 μL dimethyl sulphoxide, which enabled the release of the reaction product.
# (§5) The absorbance was measured at 570 nm using a BioTek EL×800 microplate reader (BioTek, Winooski, Vermont, USA) and results were expressed as a percentage of the absorbance measured in control cells. The obtained values were plotted against different concentrations of each compound to calculate the viability inhibition concentration at 50% (IC50) using GraphPad Prism 6.07 (GraphPad Software, Inc., San Diego, CA, USA). The experiment was repeated in quadruplicate.
# (§6) For the cytotoxicity assessment in the MTT assays, each test drug was used at 8 concentrations (range: 0.01–0.25 mg/mL).
# [5] = test system: astrocyte cell line isolated from human cerebral cortex; test: MTT cell viability test on human astrocytes; type: cell-based; conditions: Astrocyte, human astrocytes, MTT
# Method: as §3, §4, §5, §6
# [6] = parallel artificial membrane permeability assay (PAMPA); type: in vitro ADME; conditions: for Pe (×10^−6cm/s) ± SD: PAMPA, triplicate, breakpoint for permeable compounds Pe ≥ 1.5×10^−6 cm/s
# MAO B = biological target: T3, MAO B (Homo sapiens, UniProt P27338); test: reversibility of MAO B inhibition (reactivation by excess p-tyramine, with/without preincubation); type: biochemical; conditions: inhibitor at IC80
# T3 sequence (P27338 1-520): T2 sequence (P27338 1-520)
# Method: The reversibility of the MAO inhibition was tested as described in [6, 7]. […] Two variants of experiment were performed. […] After 22 min, the concentration of the substrate was increased to 200 µM and the signal was measured for 5 h.
# [7] = biological target: T1, human histamine H3 receptor (hH3R); set-up: expressed in transfected cells; conditions: HEK293 cells; read-out: hH3R Ki [nM] [95%CI]; cited from earlier work
# [8] = biological target: T1, human histamine H3 receptor (hH3R); test: [3H]Nα-methylhistamine radioligand binding assay in HEK293 cells stably expressing hH3R; set-up: expressed in transfected cells; conditions: mean within 95% CI of three independent experiments
# Method: as §1, §2
# [9] = inhibitor at IC20, IC50, IC80, p-tyramine 0.05–2.0 mM
SMILES,Ki (hH3R) [nM],IC50 (human MAO B (hMAO B) [3]) [nM],melting point [°C],Ki [8],further results
O=C1/C(=C/c2ccc(OCCCN3CCCCC3)cc2)Cc2cc(OCc3ccc(Br)cc3)ccc21 [Compound 1],6.5,,,,
CCC(C)(C)c1ccc(OCCCN2CCCC2)cc1 [Compound 3],63,,,,IC50 (hMAO B): 4.5 nM
"CCCN(CCC)CCCOc1ccc(C(C)(C)C)cc1.O=C(O)C(=O)O [Compound 9, 3-(4-(tert-Butyl)phenoxy)-N,N-dipropylpropan-1-amine hydrogen oxalate]",,2,139 to 142,,"Ki [1]: 323 ± 73 nM; Affinity (free enzyme vs enzyme-substrate complex) (human MAO B (hMAO B) [2]): Free enzyme ≈ enzyme-substrate complex; Mode of inhibition from kinetic values and LB plot (human MAO B (hMAO B) [2]): noncompetitive inhibition; Lines on LB plot (human MAO B (hMAO B) [2]; Lineweaver–Burk double-reciprocal plot): Lines intersect to the left of y-axis directly on x-axis; app. KM (human MAO B (hMAO B) [2]; [9]): No effect ^a; app. Vmax (human MAO B (hMAO B) [2]; [9]): ↓ curvilinearly with ↑ [I]; app. Vmax/app. KM (human MAO B (hMAO B) [2]; [9]): ↓ curvilinearly with ↑ [I]; viability at 24 h [4]: > 95%; IC50 ([5]; 24 h incubation, read-out: IC50 24 h): 144 µM and 55 µg/mL; IC50 ([5]; 72 h incubation, read-out: IC50 72 h): 123 µM and 47 µg/mL; permeability in PAMPA, in words [6]: not able to cross the artificial membrane; Pe (×10^−6cm/s) ± SD [6]: ^---- -- ^c; effect of 30 min preincubation on inhibition (preincubated vs non-preincubated) (MAO B): did not show differences between the variants; reversibility of MAO B inhibition (MAO B; excess p-tyramine 200 µM): reversible inhibition"
"CC1CCCCN1CCCOc1ccc(C(C)(C)C)cc1 (stereo not shown) [Compound 10, 1-(3-(4-(tert-Butyl)phenoxy)propyl)-2-methylpiperidine hydrogen oxalate]",,,,,Ki [7]: < 100 nM
"CC(=O)c1ccc(OCCCN2CCCCC2)cc1.O=C(O)C(=O)O [Compound 18, 1-(4-(3-(Piperidin-1-yl)propoxy)phenyl)ethan-1-one hydrogen oxalate]",,,157 to 159,15 nM,inhibition at 1 µM (human MAO B (hMAO B) [3]): 19%
"CC(C)c1ccc(OCCCN2CCCCC2)cc1.O=C(O)C(=O)O [Compound 19, 1-(3-(4-Isopropylphenoxy)propyl)piperidine hydrogen oxalate]",,21 ± 3,112 to 115,52 nM,
"CCc1ccc(OCCCN2CCCCC2)cc1.O=C(O)C(=O)O [Compound 20, 1-(3-(4-Ethylphenoxy)propyl)piperidine hydrogen oxalate]",,70 ± 2,144 to 146,62 nM and 61 nM,
"Cc1ccc(OCCCN2CCCCC2)cc1.O=C(O)C(=O)O [Compound 21, 1-(3-(p-Tolyloxy)propyl)piperidine hydrogen oxalate]",,755 ± 106,160 to 162,43 nM,
"Fc1ccc(OCCCN2CCCCC2)cc1.O=C(O)C(=O)O [Compound 22, 1-(3-(4-Fluorophenoxy)propyl)piperidine hydrogen oxalate]",,,132 to 136,> 80 nM and 93 nM,inhibition at 1 µM (human MAO B (hMAO B) [3]): 29%
"Clc1ccc(OCCCN2CCCCC2)cc1.O=C(O)C(=O)O [Compound 23, 1-(3-(4-chlorophenoxy)propyl)piperidine hydrogen oxalate]",,1060 ± 37,158 to 160,> 80 nM and 83 nM,
CCC(C)(C)c1ccc(OCCCN2CCCCC2)cc1 [DL77],37,,,,IC50 (hMAO B): 19 nM
"Cn1c(=O)c2c(ncn2C)n(C)c1=O [caffeine, reference compound]",,,,,Pe (×10^−6cm/s) ± SD [6]: 15.1 ×10^−6cm/s
O=C(c1ccc(OCCCc2cnc[nH]2)cc1)C1CC1 [ciproxifan],46,,,,IC50 (hMAO B): 2000 nM
